Results: ChEMBL document CHEMBL1150386 (J Med Chem, 2008)
pIC50, pKd, pKi: −log10 of the molar value.

Key:
Cholinesterase [1] = target: Cholinesterase (Mus musculus, UniProt Q03311)
Description: Inhibition of mouse BuChE

Butyrylcholinesterase = Butyrylcholinesterase (Rattus norvegicus, UniProt Q9JKC1)
Acetylcholinesterase [2] = target: T1, Acetylcholinesterase (Rattus norvegicus, UniProt P37136)
T1 sequence (P37136 whole entry): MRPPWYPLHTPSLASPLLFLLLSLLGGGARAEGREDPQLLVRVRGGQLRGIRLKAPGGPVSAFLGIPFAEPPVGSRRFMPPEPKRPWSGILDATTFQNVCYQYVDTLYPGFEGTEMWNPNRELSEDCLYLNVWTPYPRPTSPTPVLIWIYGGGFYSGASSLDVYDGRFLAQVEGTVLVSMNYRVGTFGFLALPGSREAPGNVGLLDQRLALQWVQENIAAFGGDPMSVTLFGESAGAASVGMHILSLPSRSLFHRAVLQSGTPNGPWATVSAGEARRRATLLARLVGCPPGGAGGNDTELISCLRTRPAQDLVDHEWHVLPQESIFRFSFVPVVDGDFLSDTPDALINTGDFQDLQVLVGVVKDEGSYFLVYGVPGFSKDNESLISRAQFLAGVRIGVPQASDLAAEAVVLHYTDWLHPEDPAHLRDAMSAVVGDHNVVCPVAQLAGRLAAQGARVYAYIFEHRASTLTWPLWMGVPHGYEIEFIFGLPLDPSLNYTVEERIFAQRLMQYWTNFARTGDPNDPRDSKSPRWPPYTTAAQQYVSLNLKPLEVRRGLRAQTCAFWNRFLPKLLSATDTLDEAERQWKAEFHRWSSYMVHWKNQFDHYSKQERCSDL

Cholinesterase [3] = target: Cholinesterase (Equus caballus, UniProt P81908); test: Inhibition of horse BuChE
Chain of Cholinesterase (Equus caballus, UniProt P81908) (P81908 whole entry): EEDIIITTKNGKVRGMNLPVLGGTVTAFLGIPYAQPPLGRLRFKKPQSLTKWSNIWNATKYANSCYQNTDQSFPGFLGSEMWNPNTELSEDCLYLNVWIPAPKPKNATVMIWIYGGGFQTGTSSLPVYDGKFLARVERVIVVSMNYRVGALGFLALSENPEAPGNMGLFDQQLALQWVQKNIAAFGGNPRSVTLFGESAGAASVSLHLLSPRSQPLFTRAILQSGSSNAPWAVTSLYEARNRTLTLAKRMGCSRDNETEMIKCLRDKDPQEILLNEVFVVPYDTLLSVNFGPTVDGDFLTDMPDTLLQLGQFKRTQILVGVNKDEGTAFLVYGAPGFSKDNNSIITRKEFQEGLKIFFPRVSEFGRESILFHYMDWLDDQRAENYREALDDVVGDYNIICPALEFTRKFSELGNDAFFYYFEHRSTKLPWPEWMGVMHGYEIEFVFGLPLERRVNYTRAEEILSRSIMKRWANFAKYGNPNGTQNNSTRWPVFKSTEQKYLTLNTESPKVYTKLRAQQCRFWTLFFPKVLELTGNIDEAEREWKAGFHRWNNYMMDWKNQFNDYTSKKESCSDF

[4] = Ratio of Ki for fetal bovine serum AChE to Ki for horse BuChE
Acetylcholinesterase [5] = target: T2, Acetylcholinesterase (Mus musculus, UniProt P21836)
T2 sequence (P21836 whole entry): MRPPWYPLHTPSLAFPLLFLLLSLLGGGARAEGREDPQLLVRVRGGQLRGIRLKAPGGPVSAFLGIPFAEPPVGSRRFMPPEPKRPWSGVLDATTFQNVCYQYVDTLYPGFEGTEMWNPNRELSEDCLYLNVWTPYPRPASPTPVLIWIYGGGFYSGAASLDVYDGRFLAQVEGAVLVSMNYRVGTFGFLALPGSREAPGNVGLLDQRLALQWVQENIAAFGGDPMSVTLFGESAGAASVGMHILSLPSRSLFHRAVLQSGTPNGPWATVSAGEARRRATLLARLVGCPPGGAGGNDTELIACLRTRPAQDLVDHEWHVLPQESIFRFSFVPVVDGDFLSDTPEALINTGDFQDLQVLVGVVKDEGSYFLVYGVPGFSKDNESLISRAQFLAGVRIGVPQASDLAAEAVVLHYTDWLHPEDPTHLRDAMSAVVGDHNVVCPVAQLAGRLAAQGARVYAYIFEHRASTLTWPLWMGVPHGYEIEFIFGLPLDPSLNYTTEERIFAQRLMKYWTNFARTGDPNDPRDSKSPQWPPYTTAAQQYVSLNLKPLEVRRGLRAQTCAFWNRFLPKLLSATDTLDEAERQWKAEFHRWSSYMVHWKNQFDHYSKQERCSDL
Description: Binding affinity to mouse AChE by equilibrium binding assay

Acetylcholinesterase [6] = target: T2, Acetylcholinesterase; remark: listed apart in the source
Description: Binding affinity to mouse AChE

Acetylcholinesterase [7] = target: T3, Acetylcholinesterase (Bos taurus, UniProt P23795); test: Inhibition of bovine AChE
T3 sequence (P23795 whole entry): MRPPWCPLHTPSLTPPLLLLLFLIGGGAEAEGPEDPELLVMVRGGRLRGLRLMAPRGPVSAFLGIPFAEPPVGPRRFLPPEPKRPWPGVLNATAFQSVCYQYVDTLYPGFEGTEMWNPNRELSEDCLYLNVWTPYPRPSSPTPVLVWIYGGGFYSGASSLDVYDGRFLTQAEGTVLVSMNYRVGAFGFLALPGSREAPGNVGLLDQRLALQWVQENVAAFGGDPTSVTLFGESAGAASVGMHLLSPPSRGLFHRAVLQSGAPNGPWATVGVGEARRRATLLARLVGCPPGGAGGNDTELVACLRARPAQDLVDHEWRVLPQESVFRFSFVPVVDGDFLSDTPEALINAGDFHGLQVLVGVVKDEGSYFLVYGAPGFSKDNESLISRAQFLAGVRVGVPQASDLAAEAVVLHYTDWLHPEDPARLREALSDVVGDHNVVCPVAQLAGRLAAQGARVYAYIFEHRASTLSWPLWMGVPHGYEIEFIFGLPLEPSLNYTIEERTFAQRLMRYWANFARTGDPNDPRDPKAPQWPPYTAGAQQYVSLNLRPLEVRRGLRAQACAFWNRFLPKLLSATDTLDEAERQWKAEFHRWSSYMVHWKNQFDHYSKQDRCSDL

Acetylcholinesterase [8] = target: T4, Acetylcholinesterase (Torpedo californica, UniProt P04058)
T4 sequence (P04058 whole entry): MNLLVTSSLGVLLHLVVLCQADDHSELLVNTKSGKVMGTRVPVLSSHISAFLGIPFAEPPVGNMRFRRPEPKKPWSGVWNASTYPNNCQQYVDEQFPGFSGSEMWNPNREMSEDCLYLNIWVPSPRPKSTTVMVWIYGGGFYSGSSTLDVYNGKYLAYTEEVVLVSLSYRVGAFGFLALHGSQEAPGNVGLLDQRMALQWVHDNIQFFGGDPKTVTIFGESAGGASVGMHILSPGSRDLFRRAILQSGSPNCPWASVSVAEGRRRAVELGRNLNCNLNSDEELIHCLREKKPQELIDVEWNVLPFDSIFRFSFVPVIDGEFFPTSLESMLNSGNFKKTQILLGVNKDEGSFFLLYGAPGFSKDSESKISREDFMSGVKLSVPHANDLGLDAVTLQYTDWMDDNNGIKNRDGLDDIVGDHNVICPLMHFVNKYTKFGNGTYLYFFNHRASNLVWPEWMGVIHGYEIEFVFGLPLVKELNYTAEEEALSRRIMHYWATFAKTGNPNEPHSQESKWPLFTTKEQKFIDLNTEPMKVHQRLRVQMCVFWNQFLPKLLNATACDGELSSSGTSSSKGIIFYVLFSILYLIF

Acetylcholinesterase [9] = target: Acetylcholinesterase (Homo sapiens, UniProt P22303); test: Binding affinity to human AChE
Chain of Acetylcholinesterase (Homo sapiens, UniProt P22303) (P22303 whole entry): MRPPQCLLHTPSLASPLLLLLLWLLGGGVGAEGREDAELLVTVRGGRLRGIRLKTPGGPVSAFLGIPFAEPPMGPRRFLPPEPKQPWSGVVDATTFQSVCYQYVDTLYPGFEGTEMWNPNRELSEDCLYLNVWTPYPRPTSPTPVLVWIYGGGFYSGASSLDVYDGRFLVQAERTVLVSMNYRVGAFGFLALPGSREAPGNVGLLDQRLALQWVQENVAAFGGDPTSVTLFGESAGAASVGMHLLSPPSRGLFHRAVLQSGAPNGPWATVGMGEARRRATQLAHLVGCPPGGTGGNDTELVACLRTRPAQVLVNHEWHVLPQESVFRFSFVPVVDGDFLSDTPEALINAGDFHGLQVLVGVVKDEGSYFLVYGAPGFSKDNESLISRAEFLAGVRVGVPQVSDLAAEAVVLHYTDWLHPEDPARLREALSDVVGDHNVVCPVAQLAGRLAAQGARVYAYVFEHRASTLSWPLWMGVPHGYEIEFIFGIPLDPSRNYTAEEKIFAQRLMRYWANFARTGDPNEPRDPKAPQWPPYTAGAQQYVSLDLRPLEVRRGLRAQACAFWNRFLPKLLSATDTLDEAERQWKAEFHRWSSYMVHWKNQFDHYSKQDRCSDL

Acetylcholinesterase [10] = target: T4, Acetylcholinesterase; test: Inhibition of Torpedo californica AChE assessed as carbamylation; parameters: species or system Tetronarce californica

Chain of Cholinesterase (Mus musculus, UniProt Q03311) (Q03311 whole entry): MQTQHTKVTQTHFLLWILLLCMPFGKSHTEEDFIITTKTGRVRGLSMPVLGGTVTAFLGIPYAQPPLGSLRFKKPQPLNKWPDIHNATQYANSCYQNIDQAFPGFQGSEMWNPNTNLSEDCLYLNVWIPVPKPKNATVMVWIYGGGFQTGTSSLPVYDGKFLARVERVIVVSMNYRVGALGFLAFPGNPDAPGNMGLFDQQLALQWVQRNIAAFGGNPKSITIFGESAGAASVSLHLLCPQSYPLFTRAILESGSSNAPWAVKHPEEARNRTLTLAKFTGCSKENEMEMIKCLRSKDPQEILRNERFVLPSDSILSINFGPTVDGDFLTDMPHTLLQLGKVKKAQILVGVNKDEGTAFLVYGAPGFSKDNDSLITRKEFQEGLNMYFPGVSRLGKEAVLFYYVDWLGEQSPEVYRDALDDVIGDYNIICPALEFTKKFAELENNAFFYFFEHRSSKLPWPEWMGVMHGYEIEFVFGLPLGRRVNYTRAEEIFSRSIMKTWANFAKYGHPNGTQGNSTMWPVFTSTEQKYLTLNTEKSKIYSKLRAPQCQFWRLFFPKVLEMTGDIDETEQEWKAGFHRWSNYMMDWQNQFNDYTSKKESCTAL
Chain of Butyrylcholinesterase (Q9JKC1 whole entry): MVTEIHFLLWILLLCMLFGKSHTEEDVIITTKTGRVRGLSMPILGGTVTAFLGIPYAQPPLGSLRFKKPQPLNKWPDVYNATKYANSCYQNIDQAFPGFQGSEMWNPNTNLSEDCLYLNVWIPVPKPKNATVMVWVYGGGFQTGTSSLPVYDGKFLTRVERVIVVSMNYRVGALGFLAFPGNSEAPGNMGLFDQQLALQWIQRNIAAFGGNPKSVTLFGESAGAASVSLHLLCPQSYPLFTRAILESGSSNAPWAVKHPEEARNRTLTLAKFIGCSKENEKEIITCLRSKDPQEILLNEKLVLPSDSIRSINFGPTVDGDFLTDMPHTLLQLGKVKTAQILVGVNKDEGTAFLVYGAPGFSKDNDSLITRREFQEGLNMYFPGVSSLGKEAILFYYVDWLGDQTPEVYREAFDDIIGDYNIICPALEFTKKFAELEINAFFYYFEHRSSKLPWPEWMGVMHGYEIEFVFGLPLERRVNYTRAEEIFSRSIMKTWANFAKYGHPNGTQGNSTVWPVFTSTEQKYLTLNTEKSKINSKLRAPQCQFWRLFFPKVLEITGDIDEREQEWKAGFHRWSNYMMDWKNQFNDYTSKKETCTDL

Nc1ccc2c(c1)c(-c1ccccc1)[n+](CCCCCCc1cnnn1CCNc1c3c(nc4ccccc14)CCCC3)c1cc(N)ccc21
pKi (Cholinesterase [1]): 9.14

c1ccc2c(c1)NC1CCCCC1=C2NCCCCCCCCNC1CCNC2CCCCC21 (stereo unspecified)
pIC50 (Butyrylcholinesterase): 6.96
pIC50 (Acetylcholinesterase [2]): 8.06

c1ccc2c(NCCCCCCCNc3c4c(nc5ccccc35)CCCC4)c3c(nc2c1)CCCC3
pKi (Cholinesterase [3]): 8.70

CN(CCCNc1c2c(nc3ccccc13)CCCC2)CCCSc1c2c(nc3ccccc13)CCCC2
Ratio Ki [4]: 2.17
pKi (Cholinesterase [3]): 8.38

C[N+](C)(C)CCCCCCCCCC[n+]1c(-c2ccccc2)cc(N)c2ccc3ccc(N)cc3c21
pKd (Acetylcholinesterase [5]): 3.80
pKd (Acetylcholinesterase [6]): 4.10

C=CC[N+](C)(C)c1ccc(CCC(=O)CCc2ccc([N+](C)(C)CC=C)cc2)cc1
pKi (Acetylcholinesterase [7]): 7.24

CCc1ccccc1NC(=O)Oc1ccc2c(c1)[C@]1(C)CCN(C)O[C@@H]1N2C [GANSTIGMINE]
pIC50 (Acetylcholinesterase [8]): 5.29

Nc1ccc2c(c1)c(-c1ccccc1)[n+](CCCCCCc1cn(CCNc3c4c(nc5ccccc35)CCCC4)nn1)c1cc(N)ccc21
pKi (Cholinesterase [1]): 9.34

NCCCCCCCCNc1c2c(nc3ccccc13)CCCC2
pIC50 (Acetylcholinesterase [2]): 8.82

CC[N+](CC)(CCNC(=O)C(=O)NCC[N+](CC)(CC)Cc1ccccc1Cl)Cc1ccccc1Cl [AMBENONIUM]
pKd (Acetylcholinesterase [5]): 4.34
pKd (Acetylcholinesterase [6]): 4.27

CCC1=CC2Cc3nc4cc(Cl)ccc4c(N)c3[C@@H](C1)C2 [HUPRINE X]
pKi (Acetylcholinesterase [9]): 9.17

CCN(C)C(=O)Oc1cccc([C@H](C)N(C)C)c1 [RIVASTIGMINE]
Ki (Acetylcholinesterase [10]): 0.033 M⁻¹ s⁻¹
